Each block holds one molecule with its values, some of them ahead of it.
Assays:
[1] = molecular target: hCA II (Homo sapiens, UniProt P00918); assay: stopped-flow CO2 hydrase assay, hCA II; format: biochemical; settings: stopped flow technique, mean from three assays
[2] = molecular target: hCA I (Homo sapiens, UniProt P00915); assay: stopped-flow CO2 hydrase assay, hCA I; format: biochemical; settings: stopped flow technique, mean from three assays
[3] = molecular target: hCA IX (Homo sapiens, UniProt Q16790); assay: biochemical; format: biochemical; settings: for Ki: KI hCA IX, stopped flow technique, mean from three assays; for Selectivity index I/IX: ratio KI hCA I / KI hCA IX; for Selectivity index II/IX: ratio KI hCA II / KI hCA IX; for Selectivity index IV/IX: ratio KI hCA IV / KI hCA IX
[4] = molecular target: hCA IV (Homo sapiens, UniProt P22748); assay: stopped-flow CO2 hydrase assay, hCA IV; format: biochemical; settings: stopped flow technique, mean from three assays
hCA IV, sequence (P22748 19-284 limits assumed): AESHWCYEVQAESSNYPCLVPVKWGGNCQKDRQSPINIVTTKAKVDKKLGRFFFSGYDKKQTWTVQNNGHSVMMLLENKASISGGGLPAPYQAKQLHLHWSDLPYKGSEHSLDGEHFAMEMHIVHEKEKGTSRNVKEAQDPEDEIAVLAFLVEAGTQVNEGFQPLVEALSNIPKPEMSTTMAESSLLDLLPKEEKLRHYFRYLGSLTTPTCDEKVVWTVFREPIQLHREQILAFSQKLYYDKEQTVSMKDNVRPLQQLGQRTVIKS

[5] = tested on: HuTuP192 primary glioblastoma cells; assay: cell proliferation analysis; format: cell-based, human; settings: 72 h
[6] = cytotoxicity in resting peripheral blood lymphocytes; format: cell-based; settings: human
[7] = molecular target: hCA XII (Homo sapiens, UniProt O43570); assay: stopped-flow CO2 hydrase assay, hCA XII; format: biochemical; settings: for Ki: KI hCA XII, stopped flow technique, mean from three assays; for Selectivity index I/XII: ratio KI hCA I / KI hCA XII; for Selectivity index II/XII: ratio KI hCA II / KI hCA XII; for Selectivity index IV/XII: ratio KI hCA IV / KI hCA XII
hCA XII, sequence (O43570 25-354): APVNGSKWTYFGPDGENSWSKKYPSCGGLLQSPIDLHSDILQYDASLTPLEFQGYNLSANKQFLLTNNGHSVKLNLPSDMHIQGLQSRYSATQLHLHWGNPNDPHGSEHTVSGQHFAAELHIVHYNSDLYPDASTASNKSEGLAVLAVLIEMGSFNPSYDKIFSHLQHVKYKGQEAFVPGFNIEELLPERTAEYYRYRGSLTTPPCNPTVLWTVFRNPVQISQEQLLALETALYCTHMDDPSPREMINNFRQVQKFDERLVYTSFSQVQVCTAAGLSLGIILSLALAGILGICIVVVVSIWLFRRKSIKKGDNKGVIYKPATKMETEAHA

[8] = tested on: HuTuP108 primary glioblastoma cells; assay: cell proliferation analysis; format: cell-based, human; settings: 72 h
[9] = tested on: HD-MB03 and DAOY medulloblastoma cell lines; assay: cell proliferation analysis; format: cell-based, human; settings: 72 h

hCA I, sequence (P00915 whole entry): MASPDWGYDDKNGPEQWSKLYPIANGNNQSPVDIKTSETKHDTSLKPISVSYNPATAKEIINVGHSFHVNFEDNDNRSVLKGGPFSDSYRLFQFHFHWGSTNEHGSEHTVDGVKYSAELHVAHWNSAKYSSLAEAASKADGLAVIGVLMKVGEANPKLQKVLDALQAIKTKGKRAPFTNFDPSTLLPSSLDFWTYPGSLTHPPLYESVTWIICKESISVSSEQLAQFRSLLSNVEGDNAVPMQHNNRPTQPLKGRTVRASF

SMILES: [NH2][Pt]([NH2])([Cl])[Cl] [CDDP, cisplatin, reference compound]
viability reduction by CDDP alone ([9]; CDDP concentration used for combination (cis-Pt 1.8 µM)): around 50%

SMILES: COc1cccc(-c2ccnc3nc(Nc4ccc(S(N)(=O)=O)cc4)nn23)c1 [Compound 1x, 4-((7-(3-Methoxyphenyl)-[1,2,4]triazolo[1,5-a]pyrimidin-2-yl)amino)benzenesulfonamide]
effect of combination on efficacy of CDDP in reducing cell viability ([9]; compound 10 µM + cis-Pt 1.8 µM, both MB cell lines): significantly improved the efficacy of CDDP
Ki [1]: 33.8 nM
Ki [2]: 1060 nM
Ki [3]: 5.1 nM
Selectivity index I/IX [3]: 207
Selectivity index II/IX [3]: 6.6
Selectivity index IV/IX [3]: 110
Ki [4]: 559 nM
decrease in viability ([5]; 10 µM, HuTuP192, hypoxic conditions): most potent
GI50 at 72 h [6]: > 10000 nM
Ki [7]: 12.5 nM
Selectivity index I/XII [7]: 84.5
Selectivity index II/XII [7]: 2.7
Selectivity index IV/XII [7]: 44.8

SMILES: Cn1nnc2c(C(N)=O)ncn2c1=O [TMZ, temozolomide, reference compound]
response of cells to TMZ ([8]; TMZ 500 µM): resistant

SMILES: NS(=O)(=O)c1ccc(Nc2nc3nccc(-c4ccc(Br)cc4)n3n2)cc1 [Compound 1n, 4-((7-(4-Bromophenyl)-[1,2,4]triazolo[1,5-a]pyrimidin-2-yl)amino)benzenesulfonamide]
Ki [1]: 200 nM
Ki [2]: 3370 nM
Ki [3]: 52.7 nM
Selectivity index I/IX [3]: 63.8
Selectivity index II/IX [3]: 3.8
Selectivity index IV/IX [3]: 98.9
Ki [4]: 5210 nM
Ki [7]: 58.2 nM
Selectivity index I/XII [7]: 57.8
Selectivity index II/XII [7]: 3.4
Selectivity index IV/XII [7]: 89.6

SMILES: NS(=O)(=O)c1ccc(Nc2nc3nccc(-c4c(F)cccc4F)n3n2)cc1 [Compound 1i, 4-((7-(2,6-Difluorophenyl)-[1,2,4]triazolo[1,5-a]pyrimidin-2-yl)amino)benzenesulfonamide]
Ki [1]: 17.6 nM
Ki [2]: 743 nM
Ki [3]: 21.9 nM
Selectivity index I/IX [3]: 33.9
Selectivity index II/IX [3]: 0.8
Selectivity index IV/IX [3]: 32.1
Ki [4]: 703 nM
Ki [7]: 22.5 nM
Selectivity index I/XII [7]: 33
Selectivity index II/XII [7]: 0.8
Selectivity index IV/XII [7]: 31.2

SMILES: NS(=O)(=O)c1ccc(Nc2nc3nccc(-c4cccc([N+](=O)[O-])c4)n3n2)cc1 [Compound 1r, 4-((7-(3-Nitrophenyl)-[1,2,4]triazolo[1,5-a]pyrimidin-2-yl)amino)benzenesulfonamide]
Ki [1]: 48 nM
Ki [2]: 3470 nM
Ki [3]: 49.9 nM
Selectivity index I/IX [3]: 69.5
Selectivity index II/IX [3]: 1.0
Selectivity index IV/IX [3]: 13.8
Ki [4]: 690 nM
Ki [7]: 4.3 nM
Selectivity index I/XII [7]: 806
Selectivity index II/XII [7]: 11.2
Selectivity index IV/XII [7]: 160

SMILES: NS(=O)(=O)c1ccc(Nc2nc3nccc(-c4cccnc4)n3n2)cc1 [Compound 1d, 4-((7-(Pyridin-3-yl)-[1,2,4]triazolo[1,5-a]pyrimidin-2-yl)amino)benzenesulfonamide]
Ki [1]: 24.8 nM
Ki [2]: 602 nM
Ki [3]: 5.1 nM
Ki [4]: 333 nM
Ki [7]: 8.8 nM

The next lines start with results.

Ki [1]: 72.9 nM
Ki [2]: 2200 nM
Ki [3]: 11 nM
Selectivity index I/IX [3]: 200
Selectivity index II/IX [3]: 6.6
Selectivity index IV/IX [3]: 575
Ki [4]: 6320 nM
Ki [7]: 31.6 nM
Selectivity index I/XII [7]: 69.5
Selectivity index II/XII [7]: 2.3
Selectivity index IV/XII [7]: 200
SMILES: COc1ccccc1-c1ccnc2nc(Nc3ccc(S(N)(=O)=O)cc3)nn12 [Compound 1y, 4-((7-(2-Methoxyphenyl)-[1,2,4]triazolo[1,5-a]pyrimidin-2-yl)amino)benzenesulfonamide]
effect of combination on the effect of TMZ ([5]; compound 10 µM + TMZ 500 µM, HuTuP192): did not significantly improve the effect of TMZ
GI50 at 72 h [6]: > 10000 nM
effect of combination on the effect of TMZ ([8]; compound 10 µM + TMZ 500 µM): did not significantly improve the effect of TMZ

Ki [1]: 43.7 nM
Ki [2]: 725 nM
Ki [3]: 41.6 nM
Selectivity index I/IX [3]: 17.4
Selectivity index II/IX [3]: 1.0
Selectivity index IV/IX [3]: 17.5
Ki [4]: 726 nM
Ki [7]: 15.3 nM
Selectivity index I/XII [7]: 47.4
Selectivity index II/XII [7]: 2.9
Selectivity index IV/XII [7]: 47.5
SMILES: NS(=O)(=O)c1ccc(Nc2nc3nccc(-c4ccncc4)n3n2)cc1 [Compound 1c, 4-((7-(Pyridin-4-yl)-[1,2,4]triazolo[1,5-a]pyrimidin-2-yl)amino)benzenesulfonamide]

Ki [1]: 98.2 nM
Ki [2]: 501 nM
Ki [3]: 49.5 nM
Selectivity index I/IX [3]: 10.1
Selectivity index II/IX [3]: 2.0
Selectivity index IV/IX [3]: 53.7
Ki [4]: 2660 nM
Ki [7]: 66.9 nM
Selectivity index I/XII [7]: 7.5
Selectivity index II/XII [7]: 1.5
Selectivity index IV/XII [7]: 39.7
SMILES: NS(=O)(=O)c1ccc(Nc2nc3nccc(-c4cccs4)n3n2)cc1 [Compound 1b, 4-((7-(Thiophen-2-yl)-[1,2,4]triazolo[1,5-a]pyrimidin-2-yl)amino)benzenesulfonamide]

Ki [1]: 42.8 nM
Ki [2]: 2680 nM
Ki [3]: 4.7 nM
Selectivity index I/IX [3]: 570
Selectivity index II/IX [3]: 9.1
Selectivity index IV/IX [3]: 1877
Ki [4]: 8820 nM
Ki [7]: 30.4 nM
Selectivity index I/XII [7]: 88.1
Selectivity index II/XII [7]: 1.4
Selectivity index IV/XII [7]: 290
SMILES: Cc1ccccc1-c1ccnc2nc(Nc3ccc(S(N)(=O)=O)cc3)nn12 [Compound 1v, 4-((7-(o-Tolyl)-[1,2,4]triazolo[1,5-a]pyrimidin-2-yl)amino)benzenesulfonamide]

Ki [1]: 133 nM
Ki [2]: 9200 nM
Ki [3]: 38.1 nM
Selectivity index I/IX [3]: 241
Selectivity index II/IX [3]: 3.5
Selectivity index IV/IX [3]: 114
Ki [4]: 4330 nM
Ki [7]: 78.6 nM
Selectivity index I/XII [7]: 117
Selectivity index II/XII [7]: 1.7
Selectivity index IV/XII [7]: 55.1
SMILES: NS(=O)(=O)c1ccc(Nc2nc3nccc(-c4cccc(Br)c4)n3n2)cc1 [Compound 1o, 4-((7-(3-Bromophenyl)-[1,2,4]triazolo[1,5-a]pyrimidin-2-yl)amino)benzenesulfonamide]

Ki [1]: 124 nM
Ki [2]: 6580 nM
Ki [3]: 30.4 nM
Selectivity index I/IX [3]: 216
Selectivity index II/IX [3]: 4.06
Selectivity index IV/IX [3]: 197
Ki [4]: 5980 nM
Ki [7]: 46.4 nM
Selectivity index I/XII [7]: 142
Selectivity index II/XII [7]: 2.7
Selectivity index IV/XII [7]: 129
SMILES: NS(=O)(=O)c1ccc(Nc2nc3nccc(-c4cccc(Cl)c4)n3n2)cc1 [Compound 1l, 4-((7-(3-Chlorophenyl)-[1,2,4]triazolo[1,5-a]pyrimidin-2-yl)amino)benzenesulfonamide]

Ki [1]: 45.9 nM
Ki [2]: 551 nM
Ki [3]: 22.4 nM
Selectivity index I/IX [3]: 24.6
Selectivity index II/IX [3]: 2.0
Selectivity index IV/IX [3]: 38.1
Ki [4]: 853 nM
Ki [7]: 42.6 nM
Selectivity index I/XII [7]: 12.9
Selectivity index II/XII [7]: 1.1
Selectivity index IV/XII [7]: 20.0
SMILES: NS(=O)(=O)c1ccc(Nc2nc3nccc(-c4cccc(F)c4)n3n2)cc1 [Compound 1g, 4-((7-(3-Fluorophenyl)-[1,2,4]triazolo[1,5-a]pyrimidin-2-yl)amino)benzenesulfonamide]

— paper PMC10586084 (Journal of Enzyme Inhibition and Medicinal Chemistry, 2023)
